# Data as given in ChEMBL document CHEMBL1153581, “Synthesis, antiviral and anticancer activity of some novel thioureas derived from N-(4-nitro-2-phenoxyphenyl)-methanesulfonamide” (Eur J Med Chem, 2009).
# Test system: Vaccinia virus
# Test: Antiviral activity against Vaccinia virus infected in human HEL cells assessed as protection against virus-induced cytopathogenicity
# Format: functional
# Settings: Orthopoxvirus vaccinia
row,Compound,MIC50 [µg/mL]
1,CCCNC(=S)Nc1ccc(NS(C)(=O)=O)c(Oc2ccccc2)c1,> 40
2,O=c1[nH]c(=O)n([C@H]2C[C@H](O)[C@@H](CO)O2)cc1/C=C/Br [BRIVUDINE],2
3,Nc1nc2c(ncn2COCCO)c(=O)[nH]1 [ACYCLOVIR],> 250
4,CNC(=S)Nc1ccc(NS(C)(=O)=O)c(Oc2ccccc2)c1,100
5,CCNC(=S)Nc1ccc(NS(C)(=O)=O)c(Oc2ccccc2)c1,40
6,Nc1nc2c(ncn2COC(CO)CO)c(=O)[nH]1 [GANCICLOVIR],100
7,CS(=O)(=O)Nc1ccc(NC(=S)NC2CCCCC2)cc1Oc1ccccc1,> 8
8,CS(=O)(=O)Nc1ccc(NC(=S)NCCc2ccc(Cl)cc2)cc1Oc1ccccc1,> 100
9,NC(=O)c1ncn([C@@H]2O[C@H](CO)[C@@H](O)[C@H]2O)n1 [RIBAVIRIN],150
10,CS(=O)(=O)Nc1ccc(NC(=S)NCc2ccccc2)cc1Oc1ccccc1,> 8
11,C=CCNC(=S)Nc1ccc(NS(C)(=O)=O)c(Oc2ccccc2)c1,> 40
12,CS(=O)(=O)Nc1ccc(NC(=S)Nc2ccc([N+](=O)[O-])cc2)cc1Oc1ccccc1,8
13,CS(=O)(=O)Nc1ccc(NC(=S)NCCc2ccccc2)cc1Oc1ccccc1,> 8
